Like-named read-outs stand apart in the source and are kept apart here. Oligonucleotides are written 5' to 3', each unit as a sugar letter and its base; * is a phosphorothioate linkage, no mark a phosphodiester; rarer units and linkages stand in square brackets, end groups in braces. Plain capitals give the bases only. l = locked nucleic acid (LNA); [5mC] = 5-methylcytosine; d = 2'-deoxy (DNA)
Columns and labels:
UBE3A-AS [1] = assay: UBE3A-AS steady state RNA (TaqMan qRT-PCR) in GABAergic iPSC-derived neurons; assay type: cell-based, human; conditions: for IC50 Ratio relative to ASO-4.4.PS.L: equivalence; for IC50 Ratio relative to ASO-4.4.PS.L / Limit Exceeded (equivalence of IC50 relative to ASO-4.4.PS.L): two one-sided tests; for Relative Potency: relative to ASO-4.4.PS.L = 1
UBE3A-AS [2] = assay: as above; assay type: cell-based, human; conditions: for Cluster (hierarchical clustering of fitted dose response curves): candidate ASOs, Cluster 1 representing the 9 most potent ASOs; for IC50 / Relative Potency: optimized ASOs; for IC50: 3-parameter logistic; for Relative Potency: relative to ASO 4.S = 1
Method: Human-specific ASOs were then designed to target this region, which included four ASOs targeting non-polymorphic regions in human and regions conserved (100%) with macaque (Rhesus and Cynomolgus) (Table 7 and FIG. 3A). Human induced pluripotent stem cell (iPSC) neural precursor cells were differentiated into GABAergic neurons for 14 DIV and then treated with a control ASO [ASO-C (10 μM, n=3)], Topotecan [Topo (1 μM, n=2)], and six ASOs targeting UBE3A-AS [ASO-1, ASO-2, ASO-3, ASO-4, ASO-5, and ASO-6 (10 μM, n=3)]. Additionally, an ASO targeting an intronic region downstream of SNORD109B was included (ASO-7). Six days post-treatment (20 DIV), RNA was isolated from the neurons and the steady state RNA levels of UBE3A-AS and UBE3A were estimated relative to the control treatment (FIG. 3B).
The potency of ASO-4 was further examined given its effect on UBE3A-AS RNA levels. GABAergic iPSC-derived neurons were treated at 14 DIV with a 10-point ½ log dose response curve of ASO-4 and Topotecan, as a positive control and for comparisons between treatment [1 nM, 3 nM, 10 nM, 30 nM, 100 nM, 300 nM, 1 μM, 3 μM, 10 μM, and 30 μM (ASO-4, n=6; Topotecan, n=2)]. At 20 DIV, the steady state RNA levels of UBE3A-AS were measured and dose response curves fitted to estimate the IC50 and Emax (i.e., maximum UBE3A-AS inhibition) (Table 9 and FIG. 4A). […]
Additional ASOs targeting the 5′-end of UBE3A-AS were then designed to optimize the target sequences of ASO-4 (ASO-4.1, ASO-4.2, ASO-4.3, and ASO-4.4) as well as two other target regions, ASO-3 (ASO-3.1 and ASO-3.2) and ASO-6 (ASO-6.1) (Table 11). Additionally, ASO-4 was manufactured at two different vendors for comparative purposes (ASO-4.S, Sigma; ASO-4.I, Integrated DNA Technologies). Human iPSC-derived neurons (GABAergic) were treated at 14 DIV with a […] ½ log dose curve of ASO-3.1, ASO-3.2, ASO-4.S, ASO-4.I, ASO-4.1, ASO-4.2, ASO-4.3, ASO-4.4, and ASO-6.1 [30 nM, 100 nM, 300 nM, 1 μM (n=6)]. At 20 DIV, the IC50 and Emax of each ASO was estimated as described above (FIG. 5A-B and Table 12). […] No significant difference was observed between ASO-4.S and ASO-4.I.
The potency of ASO-4 and ASO-6.1 was further examined in iPSC-derived neurons at a later time point in differentiation. GABAergic iPSC-derived neurons were treated at 29 DIV with a 10-point ½ log dose response curve of ASO-4 and ASO-6.1 [1 nM, 3 nM, 10 nM, 30 nM, 100 nM, 300 nM, 1 μM, 3 μM, 10 μM, and 30 μM (n=3)]. At 35 DIV, the IC50 and Emax of each ASO was estimated as described above (FIG. 5C-D and Table 14). The dose response curves of ASO-4 and ASO-6.1 were not similar (Parallelism test: F(3,172)=22.7, p<0.0001).
GABAergic and glutamatergic induced pluripotent stem cell (iPSC) derived neural precursor cells (NRC-100-010-001 and GNC-301-030-001, Cellular Dynamics International, Madison Wis.) were differentiated into neurons according to the manufactures protocol. Briefly, neural precursor cells were thawed and resuspended in chemically defined medium and added to sterile-culture plates coated with poly-D-lysine and laminin. The medium was replaced 24 hr after plating and then one-half of the medium was replaced every 3-5 days afterwards.
For cultured iPSC-derived neurons, RNA isolation and cDNA synthesis were performed using the Cell-to-CT kit (Thermo Fisher Scientific) in a lysate volume of 55 μl.
The steady state RNA levels of target transcripts were measured using TaqMan quantitative reverse-transcription PCR (qRT-PCR) assays. Total reaction volume was 10 uL, including 2 μl of cDNA, 1× Gene Expression Master mix (4369016, Thermo Fisher Scientific, Waltham, Mass.), and 1× TaqMan primer assay (Thermo Fisher Scientific). Cycling conditions were 2 minutes at 50° C., 10 minutes at 95° C., and 40 cycles of 15 seconds at 95° C. and 1 minute at 60° C., with readings taken at the 60° C. step of every cycle. […]

[3] = Cluster 1 ASOs, 18 DIV to 24 DIV, parallel model, 4 Parameter logistic (Hill)
[4] = candidate ASOs, 18 DIV to 24 DIV
[5] = candidate ASOs, 18 DIV to 24 DIV, 4-parameter logistic (Hill)
[6] = candidate ASOs, treated 18 DIV, RNA 24 DIV, 10-point dose curve, n=2, full model, 4-parameter logistic (Hill)
[7] = 14 DIV to 20 DIV, parallel model, read-out: IC50 (M), UBE3A-AS
[8] = treated 14 DIV, RNA 20 DIV, 5-point dose curve 30 nM-3 μM, full model, read-out: IC50 Estimate, UBE3A-AS

Row | IC50 (UBE3A-AS [1]; [3]) [nM] | IC50 Ratio relative to ASO-4.4.PS.L (UBE3A-AS [1]; Cluster 1 ASOs) | Limit Exceeded (equivalence of IC50 relative to ASO-4.4.PS.L) (UBE3A-AS [1]; Cluster 1 ASOs) | IC50 (UBE3A-AS [1]; [6]) [nM] | IC50 (UBE3A-AS [2]; [7]) [M] | IC50 (UBE3A-AS [2]; [8]) [M] | Substance | Relative Potency (UBE3A-AS [1]; Cluster 1 ASOs, parallel model) | 30 μM (Mean), normalized UBE3A-AS RNA level relative to vehicle (UBE3A-AS [1]; [4]) | Emax (normalized UBE3A-AS RNA level relative to vehicle) (UBE3A-AS [1]; [5]) | Cluster (hierarchical clustering of fitted dose response curves) (UBE3A-AS [2]) | 3 μM (Mean), Emax, normalized UBE3A-AS RNA level relative to vehicle (UBE3A-AS [2]; treated 14 DIV, RNA 20 DIV) | Relative Potency (UBE3A-AS [2]; parallel model)
1 | 153 | 0.90 | equivalent IC50 values | 147 |  |  | 5mC^M*T^M*G^M*G^M*t*g*t*c*a*a*c*a*a*g*5mC^M*5mC^M*A^M*A^M [ASO-6.1.PS.M] | 0.3 | 0.02 | −0.05 |  |  | 
2 | 177 | 0.90 | equivalent IC50 values | 166 |  |  | 5mC^M*T^M*G^M*G^M-t*g*t*c*a*a*c*a*a*g-5mC^M*5mC^M*A^M*A^M [ASO-6.1.PO-1.M] | 0.3 | 0.04 | −0.02 |  |  | 
3 |  |  |  | 269000 |  |  | 5mC^M*T^M-G^M*G^M-t*g-t*c-a*a-c*a-a*g-5mC^M*5mC^M-A^M*A^M [ASO-6.1.PO-2.M] |  | 0.3 | −1.2 |  |  | 
4 |  |  |  |  |  |  | A^L*G^L-A^L*a-t*g-g*c-a*c-a*t-c*t-5mC^L*T^L*T^L*G^L (lA*lGlA*dAdT*dGdG*dCdA*dCdA*dTdC*dTl[5mC]*lT*lT*lG) [ASO-4.4.PO-2.L] |  | 0.6 | −2.7 | 3 |  | 
5 |  |  |  |  | 2.04e-06 | 2.11e-06 | A^O*G^O*A^O*A^O*t*g*g*c*a*c*a*t*c*t*C^O*U^O*U^O*G^O [ASO-4.4] |  |  |  |  | 0.44 | 0.73
6 |  |  |  |  | 1.24e-06 | 1.08e-06 | A^O*G^O*A^O*A^O*t*g*g*c*a*c*a*t*c*t*C^O*U^O*U^O*G^O*G^O [ASO-4.2] |  |  |  |  | 0.31 | 1.21
7 |  |  |  |  |  | 2.27e-06 | A^O*U^O*A^O*G^O*A^O*a*t*g*g*c*a*c*a*t*c*U^O*C^O*U^O*U^O*G^O [ASO-4.1] |  |  |  |  | 0.42 | 
8 | 432 | 0.83 | Lower | 532 |  |  | C^O*U^O*G^O*G^O*t*g*t*c*a*a*c*a*a*g*C^O*C^O*A^O*A^o [ASO-6.1.PS.O] | 0.1 | 0.05 | −0.2 |  |  | 
9 |  |  |  |  |  |  | C^O*U^O-G^O*G^O-t*g-t*c-a*a-c*a-a*g-C^O*C^O-A^O*A^o [ASO-6.1.PO-2.O] |  | 0.3 |  |  |  | 
10 |  |  |  |  | 2.81e-06 | 2.98e-06 | G^O*U^O*U^O*G^O*a*g*t*g*g*t*g*t*c*a*G^O*U^O*U^O*U^O*C^O [ASO-3.1] |  |  |  |  | 0.51 | 0.53
11 | 281 | 0.85 | Lower | 362 |  |  | T^L*G^L*G^L*t*g*t*c*a*a*c*a*a*g*5mC^L*5mC^L*A^L*A^L [ASO-6.1.PS.L] | 0.2 | 0.04 | −0.07 |  |  | 
12 |  |  |  | 1890 |  |  | T^L*G^L*G^L-t*g*t*c*a*a*c*a*a*g-5mC^L*5mC^L*A^L*A^L [ASO-6.1.PO-1.L] |  | 0.2 | 0.03 |  |  | 
13 |  |  |  | 734 |  |  | T^L*G^L-G^L*t-g*t-c*a-a*c-a*a-g*5mC^L-5mC^L-A^L*A^L [ASO-6.1.PO-2.L] |  | 0.4 | 0.3 |  |  | 
14 | 262 | 0.86 | Lower | 300 |  |  | T^M*A^M*G^M*A^M*A^M*t*g*g*c*a*c*a*t*c*t*5mC^M*T^M*T^M*G^M*G^M [ASO-4.0.PS.M] | 0.2 | 0.05 | 0.05 |  |  | 
15 | 278 | 0.87 | Lower | 278 |  |  | T^M*A^M*G^M*A^M*A^M-t*g*g*c*a*c*a*t*c*t-5mC^M*T^M*T^M*G^M*G^M [ASO-4.0.PO-1.M] | 0.2 | 0.05 | 0.02 |  |  | 
16 |  |  |  |  |  |  | T^M*A^M-G^M*A^M-A^M*t-g*g-c*a-c*a-t*c-t*5mC^M*T^M*T^M-G^M*G^M [ASO-4.0.PO-2.M] |  | 0.5 |  |  |  | 
17 |  |  |  | 1270 |  |  | U^O*A^O*G^O*A^O*A^O*t*g*g*c*a*c*a*t*c*t*C^O*U^O*U^O*G^O*G^o [ASO-4.0.PS.O] |  | 0.1 | 0.06 |  |  | 
18 |  |  |  | 766 |  |  | U^O*A^O*G^O*A^O*A^O-t*g*g*c*a*c*a*t*c*t-C^O*U^O*U^O*G^O*G^o [ASO-4.0.PO-1.O] |  | 0.1 | 0.05 |  |  | 
19 |  |  |  |  | 1.96e-06 | 2.03e-06 | U^O*A^O*G^O*A^O*a*t*g*g*c*a*c*a*t*c*U^O*C^O*U^O*U^O*G^O [ASO-4.3] |  |  |  |  | 0.40 | 0.76
20 |  |  |  | 130000 |  |  | U^O*A^O-G^O*A^O-A^O*t-g*g-c*a-c*a-t*c-t*C^O-U^O*U^O-G^O*G^o [ASO-4.0.PO-2.O] |  | 0.6 | −0.3 |  |  | 
21 |  |  |  |  | 1.85e-06 | 1.88e-06 | U^O*U^O*G^O*A^O*g*t*g*g*t*g*t*c*a*g*U^O*U^O*U^O*C^O [ASO-3.2] |  |  |  |  | 0.44 | 0.81

Row | Substance | IC50 (UBE3A-AS [1]; [3]) [nM] | IC50 Ratio relative to ASO-4.4.PS.L (UBE3A-AS [1]; Cluster 1 ASOs) | Limit Exceeded (equivalence of IC50 relative to ASO-4.4.PS.L) (UBE3A-AS [1]; Cluster 1 ASOs) | IC50 (UBE3A-AS [1]; [6]) [nM] | IC50 (UBE3A-AS [2]; [7]) [M] | IC50 (UBE3A-AS [2]; [8]) [M] | Relative Potency (UBE3A-AS [1]; Cluster 1 ASOs, parallel model) | 30 μM (Mean), normalized UBE3A-AS RNA level relative to vehicle (UBE3A-AS [1]; [4]) | Emax (normalized UBE3A-AS RNA level relative to vehicle) (UBE3A-AS [1]; [5]) | Cluster (hierarchical clustering of fitted dose response curves) (UBE3A-AS [2]) | 3 μM (Mean), Emax, normalized UBE3A-AS RNA level relative to vehicle (UBE3A-AS [2]; treated 14 DIV, RNA 20 DIV) | Relative Potency (UBE3A-AS [2]; parallel model)
22 | A^L*G^L*A^L-a*t*g*g*c*a*c*a*t*c*t-5mC^L*T^L*T^L*G^L (lA*lG*lAdA*dT*dG*dG*dC*dA*dC*dA*dT*dC*dTl[5mC]*lT*lT*lG) [ASO-4.4.PO-1.L] | 322 | 0.88 | Lower | 226 |  |  | 0.2 | 0.1 | 0.04 | 1 |  | 

Reference: US11198869B2, “Angelman syndrome antisense treatment” (The Texas A&M University System, priority 2017, dated 2021)
